According to patent US20220135666A1, “TREATMENT OF A DISEASE OF THE GASTROINTESTINAL TRACT WITH A S1P MODULATOR” (Progenity, Inc., priority 2017, published 2022):

How the values were obtained:
[1] = Pharmacokinetic study of oral vs intra-cecal administration of tacrolimus (Example 13); set-up: species or system Yorkshire-Cross farm swine; conditions: female, Yorkshire-Cross, in vivo, 0.09 mg/kg
Text: (§1) No further randomization procedure was employed.

[2] = Tissue, plasma and GI content pharmacokinetics of tacrolimus, oral vs intra-cecal ingestible device (Example 10); set-up: species or system Yorkshire-Cross farm swine; conditions: in vivo
Protocol: The primary objective of this study was to compare the tissue, plasma, rectal sample, and GI content pharmacokinetics of tacrolimus through oral versus intra-cecal ingestible device delivery in normal Yorkshire-Cross farm swine.
as §1
Animals in Group 1 received an ingestible device containing 0.8 mL of vehicle solution (80% alcohol, 20% HCO-60). Animals in Group 2 received orally […] liquid formulation of tacrolimus at 4 mg/0.8 mL per animal (Prograf: 5 mg/mL). Animals in Group 3 received intracecally an ingestible device containing tacrolimus at 1 mg in 0.8 mL per ingestible device. […]
Approximately 200˜400 mg of rectal content were collected, if available, with a fecal swab (Copan Diagnostics Nylon Flocked Dry Swabs, 502CS01). The fecal swab was pre-weighed and weighed after collection in the collection tube (Sterile Tube and Cap No Media, PFPM913S), and the sample weight was recorded. […]
For tissue necropsy, small intestine fluid and cecal fluid were collected separately from all the animals into two separate square plastic bottles, and stored at −20° C. The length and diameter of the cecum and the colon was measured from one animal in each group and recorded for reference. […] All samples were weighed, and the tissue sample weights were recorded. […]

C=CC[C@@H]1/C=C(\C)C[C@H](C)C[C@H](OC)[C@H]2O[C@@](O)(C(=O)C(=O)N3CCCC[C@H]3C(=O)O[C@H](/C(C)=C/[C@@H]3CC[C@@H](O)[C@H](OC)C3)[C@H](C)[C@@H](O)CC1=O)[C@H](C)C[C@@H]2OC [tacrolimus]
Ratio Tissue (mean) (ng/g)/AUG(0-12 hr) (ng · hr/mL) ([1]; pig, 12 h): 0 | Trough (12 hr) ([1]; pig, 12 h): 0.568 ng/mL | Kp at 12 h ([1]; swine): 0 | Ratio Tissue (mean) (ng/g)/Tough(12 hr)(ng/mL) ([1]; swine, 12 h): 0 | level detected in tissue [2]: No measurable level
